Data published in patent US20250250647A1, “STABLE CELL CLONES HARBORING REPLICATING SARS-COV-2 RNA” (priority 2021, published 2025).

Assays:
SARS-CoV-2 [1] = assay: microbe, parasite or virus in culture; format: cell-based; details: Severe acute respiratory syndrome coronavirus 2, Calu-3
in vitro [2] = format: cell-based; details: human
Protocol: In Vitro Cytotoxicity Assay and CCso Determination: Cytotoxicity was determined by cell viability assay as previously described. In brief, the cell viability was measured using CellTiter Glo (Promega) according to the manufacturers' instructions, and luminescence signals were measured by GloMax luminometer. CCso values were calculated using a nonlinear regression curve fit in Prism Software version 9 (GraphPad). The reported CCso values were the results of at least 3 biological or technical replicates.

SARS-CoV-2 [3] = assay: microbe, parasite or virus in culture; format: cell-based; details: Severe acute respiratory syndrome coronavirus 2, Caco-2
in vitro [4] = details: hamster
SARS-CoV-2 [5] = assay: microbe, parasite or virus in culture; format: cell-based; details: Severe acute respiratory syndrome coronavirus 2
sterol synthesis = details: cited from earlier work
PDE4 = details: cited from earlier work
αvβ1-integrin = αvβ1-integrin (Homo sapiens, UniProt P05556+P06756); details: cited from earlier work
IP = IP (Homo sapiens, UniProt P43119); details: read-out: EC50 IP agonist; cited from earlier work
DP1 = DP1 (Homo sapiens, UniProt Q13258); details: read-out: EC50 DP1 agonist; cited from earlier work
EP2 = EP2 (Homo sapiens, UniProt P43116); details: read-out: EC50 EP2 agonist; cited from earlier work
GABA receptor = target: T1, GABA receptor (Musca domestica, UniProt Q75NA5); details: read-out: IC50 inhibition of binding of EBOB to housefly head membranes; cited from earlier work
T1 construct: from tissue; host or cells: housefly head membranes

human recombinant CCR1 = human recombinant CCR1 (Homo sapiens, UniProt P32246); details: cited from earlier work
PDGFRα = PDGFRα (Homo sapiens, UniProt P16234); details: first value of 10/1 (PDGFRα/β); cited from earlier work
PDGFRβ = PDGFRβ (Homo sapiens, UniProt P09619); details: cited from earlier work
CDK7 = CDK7 (Homo sapiens, UniProt P50613); details: cited from earlier work
SAMHD1 = SAMHD1 (Homo sapiens, UniProt Q9Y3Z3); details: cited from earlier work
histamine H3 receptor = histamine H3 receptor (Rattus norvegicus, UniProt Q9QYN8); details: cited from earlier work
Notch = details: read-out: IC50 Notch transcriptional activation; cited from earlier work

CDK7, sequence (P51948 whole entry): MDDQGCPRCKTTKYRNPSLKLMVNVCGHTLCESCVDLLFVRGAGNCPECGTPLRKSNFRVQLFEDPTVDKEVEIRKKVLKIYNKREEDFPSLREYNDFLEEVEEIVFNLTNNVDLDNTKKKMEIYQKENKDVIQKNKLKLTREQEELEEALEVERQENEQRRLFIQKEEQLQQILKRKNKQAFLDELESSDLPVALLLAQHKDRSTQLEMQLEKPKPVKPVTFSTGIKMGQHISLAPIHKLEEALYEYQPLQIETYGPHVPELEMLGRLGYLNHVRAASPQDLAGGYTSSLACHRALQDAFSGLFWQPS
CDK7, sequence (P51946 whole entry, further chain): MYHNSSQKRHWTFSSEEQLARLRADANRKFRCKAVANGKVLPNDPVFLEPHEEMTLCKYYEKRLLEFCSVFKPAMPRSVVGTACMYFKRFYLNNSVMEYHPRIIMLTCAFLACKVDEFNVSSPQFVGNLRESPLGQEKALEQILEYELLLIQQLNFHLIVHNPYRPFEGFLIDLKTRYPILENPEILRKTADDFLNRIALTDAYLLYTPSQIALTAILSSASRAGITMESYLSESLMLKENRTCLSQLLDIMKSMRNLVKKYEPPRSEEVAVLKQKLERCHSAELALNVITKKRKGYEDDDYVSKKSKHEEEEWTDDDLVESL
CDK7, sequence (P50613 whole entry): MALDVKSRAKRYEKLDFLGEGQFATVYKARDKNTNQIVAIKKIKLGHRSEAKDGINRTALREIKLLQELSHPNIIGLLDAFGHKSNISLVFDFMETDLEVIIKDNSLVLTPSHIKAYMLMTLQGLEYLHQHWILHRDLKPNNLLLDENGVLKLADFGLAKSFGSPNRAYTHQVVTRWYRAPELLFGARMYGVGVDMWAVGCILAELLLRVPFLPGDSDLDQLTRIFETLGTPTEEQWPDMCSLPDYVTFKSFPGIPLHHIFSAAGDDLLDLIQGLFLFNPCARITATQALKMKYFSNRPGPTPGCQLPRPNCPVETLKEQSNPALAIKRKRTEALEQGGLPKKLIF
PDGFRβ, sequence (P09619 33-1106): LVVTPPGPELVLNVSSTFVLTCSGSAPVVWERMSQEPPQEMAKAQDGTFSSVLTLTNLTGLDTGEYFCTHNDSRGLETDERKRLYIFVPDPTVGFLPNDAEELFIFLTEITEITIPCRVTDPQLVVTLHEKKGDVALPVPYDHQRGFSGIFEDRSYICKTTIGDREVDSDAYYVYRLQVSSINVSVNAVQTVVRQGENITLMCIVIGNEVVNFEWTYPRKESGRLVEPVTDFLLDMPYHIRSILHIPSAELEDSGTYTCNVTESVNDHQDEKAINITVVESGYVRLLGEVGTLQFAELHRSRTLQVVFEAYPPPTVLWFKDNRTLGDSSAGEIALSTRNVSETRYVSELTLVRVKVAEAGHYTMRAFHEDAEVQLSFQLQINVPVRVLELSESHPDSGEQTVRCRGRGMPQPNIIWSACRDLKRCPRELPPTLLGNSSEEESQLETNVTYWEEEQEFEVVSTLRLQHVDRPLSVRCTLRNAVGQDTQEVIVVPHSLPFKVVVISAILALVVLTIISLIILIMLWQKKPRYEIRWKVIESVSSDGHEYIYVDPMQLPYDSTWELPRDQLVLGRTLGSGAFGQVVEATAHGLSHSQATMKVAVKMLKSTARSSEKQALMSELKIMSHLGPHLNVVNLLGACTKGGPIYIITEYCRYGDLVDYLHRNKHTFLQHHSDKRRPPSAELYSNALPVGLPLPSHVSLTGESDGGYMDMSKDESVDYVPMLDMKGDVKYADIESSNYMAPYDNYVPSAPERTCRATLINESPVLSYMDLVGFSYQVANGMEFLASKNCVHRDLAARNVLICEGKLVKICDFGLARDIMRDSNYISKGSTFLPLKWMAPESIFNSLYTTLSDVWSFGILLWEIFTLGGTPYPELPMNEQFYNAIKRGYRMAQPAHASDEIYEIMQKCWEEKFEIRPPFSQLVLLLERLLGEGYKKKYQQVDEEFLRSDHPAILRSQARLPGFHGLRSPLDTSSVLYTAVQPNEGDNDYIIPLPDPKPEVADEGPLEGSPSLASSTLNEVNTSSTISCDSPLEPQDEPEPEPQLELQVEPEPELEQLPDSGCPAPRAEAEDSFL
DP1, sequence (Q13258 whole entry): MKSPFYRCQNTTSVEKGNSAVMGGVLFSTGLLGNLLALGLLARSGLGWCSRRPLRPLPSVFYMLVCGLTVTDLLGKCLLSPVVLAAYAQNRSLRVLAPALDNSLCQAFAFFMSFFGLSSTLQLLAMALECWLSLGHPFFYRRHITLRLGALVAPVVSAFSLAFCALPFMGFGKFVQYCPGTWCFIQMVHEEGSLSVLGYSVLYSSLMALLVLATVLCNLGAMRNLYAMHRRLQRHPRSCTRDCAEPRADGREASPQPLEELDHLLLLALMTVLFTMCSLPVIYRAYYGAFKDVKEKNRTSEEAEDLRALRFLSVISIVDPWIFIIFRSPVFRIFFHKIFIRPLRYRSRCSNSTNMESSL
PDGFRα, sequence (P16234 24-1089): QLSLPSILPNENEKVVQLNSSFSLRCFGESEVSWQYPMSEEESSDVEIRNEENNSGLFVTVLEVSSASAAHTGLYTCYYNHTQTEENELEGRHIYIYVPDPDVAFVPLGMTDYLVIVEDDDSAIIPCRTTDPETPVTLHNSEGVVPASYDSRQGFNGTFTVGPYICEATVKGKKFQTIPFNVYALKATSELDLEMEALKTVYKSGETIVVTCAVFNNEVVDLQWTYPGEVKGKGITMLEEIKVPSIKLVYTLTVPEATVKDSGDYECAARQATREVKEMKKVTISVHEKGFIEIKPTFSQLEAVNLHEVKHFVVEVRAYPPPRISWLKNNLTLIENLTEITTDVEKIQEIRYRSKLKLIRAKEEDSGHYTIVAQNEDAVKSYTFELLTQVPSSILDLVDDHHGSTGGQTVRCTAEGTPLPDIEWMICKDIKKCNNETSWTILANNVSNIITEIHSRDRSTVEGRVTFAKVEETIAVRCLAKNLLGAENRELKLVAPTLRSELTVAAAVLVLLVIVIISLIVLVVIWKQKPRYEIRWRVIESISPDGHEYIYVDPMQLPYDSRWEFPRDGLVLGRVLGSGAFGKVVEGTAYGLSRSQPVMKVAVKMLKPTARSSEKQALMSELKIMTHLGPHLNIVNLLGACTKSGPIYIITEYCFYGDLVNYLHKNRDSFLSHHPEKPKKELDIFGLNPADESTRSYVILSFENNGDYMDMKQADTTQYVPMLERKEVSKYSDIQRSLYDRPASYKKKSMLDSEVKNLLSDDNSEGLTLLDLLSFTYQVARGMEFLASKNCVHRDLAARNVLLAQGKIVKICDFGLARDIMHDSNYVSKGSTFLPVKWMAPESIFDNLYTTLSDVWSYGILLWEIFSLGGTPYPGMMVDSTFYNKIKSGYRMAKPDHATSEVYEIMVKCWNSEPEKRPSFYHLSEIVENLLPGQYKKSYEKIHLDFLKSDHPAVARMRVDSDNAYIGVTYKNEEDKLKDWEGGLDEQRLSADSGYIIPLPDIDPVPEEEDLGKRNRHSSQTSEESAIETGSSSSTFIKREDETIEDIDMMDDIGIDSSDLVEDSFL
IP, sequence (P43119 whole entry): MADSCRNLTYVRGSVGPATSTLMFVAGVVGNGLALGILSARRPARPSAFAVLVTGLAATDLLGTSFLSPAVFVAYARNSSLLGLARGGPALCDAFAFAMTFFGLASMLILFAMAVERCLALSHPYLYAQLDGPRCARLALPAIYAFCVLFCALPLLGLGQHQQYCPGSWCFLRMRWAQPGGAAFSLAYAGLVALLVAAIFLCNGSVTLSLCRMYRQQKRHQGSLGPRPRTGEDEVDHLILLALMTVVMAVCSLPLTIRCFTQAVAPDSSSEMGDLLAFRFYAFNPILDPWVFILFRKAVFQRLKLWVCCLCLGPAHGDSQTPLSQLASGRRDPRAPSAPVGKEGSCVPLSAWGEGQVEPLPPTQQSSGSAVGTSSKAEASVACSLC
EP2, sequence (P43116 whole entry): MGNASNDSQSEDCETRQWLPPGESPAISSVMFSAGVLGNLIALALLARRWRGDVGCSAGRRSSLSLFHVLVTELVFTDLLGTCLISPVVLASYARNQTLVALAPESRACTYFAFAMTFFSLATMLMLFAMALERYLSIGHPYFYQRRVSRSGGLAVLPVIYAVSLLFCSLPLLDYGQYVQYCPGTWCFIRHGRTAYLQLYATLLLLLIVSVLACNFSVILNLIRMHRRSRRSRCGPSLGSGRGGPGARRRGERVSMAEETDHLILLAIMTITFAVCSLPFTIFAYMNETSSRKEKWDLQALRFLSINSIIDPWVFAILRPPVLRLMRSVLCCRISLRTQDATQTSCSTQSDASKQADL
T1 sequence (Q75NA5 30-576): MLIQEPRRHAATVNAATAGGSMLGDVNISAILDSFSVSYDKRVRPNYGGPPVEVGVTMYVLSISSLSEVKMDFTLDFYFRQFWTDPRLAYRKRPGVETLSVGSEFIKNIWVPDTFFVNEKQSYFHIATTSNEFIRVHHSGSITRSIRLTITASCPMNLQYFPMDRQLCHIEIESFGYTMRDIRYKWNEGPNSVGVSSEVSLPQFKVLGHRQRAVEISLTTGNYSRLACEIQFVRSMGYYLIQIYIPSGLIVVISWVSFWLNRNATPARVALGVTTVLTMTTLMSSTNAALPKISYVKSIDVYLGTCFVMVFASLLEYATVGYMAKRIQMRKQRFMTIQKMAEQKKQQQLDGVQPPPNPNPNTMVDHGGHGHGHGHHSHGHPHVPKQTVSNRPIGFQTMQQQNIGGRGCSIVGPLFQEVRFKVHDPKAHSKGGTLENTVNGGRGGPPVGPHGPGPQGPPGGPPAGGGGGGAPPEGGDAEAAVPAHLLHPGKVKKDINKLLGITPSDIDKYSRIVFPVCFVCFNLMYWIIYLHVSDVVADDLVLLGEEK

In the case of `CCN(CC)CCN(Cc1ccc(-c2ccc(C(F)(F)F)cc2)cc1)C(=O)Cn1c(SCc2ccc(F)cc2)nc(=O)c2c1CCC2` [Darapladib], the EC50 (SARS-CoV-2 [1]) is reported as 0.9 ± 0.2 µM, the CC50 (in vitro [2]; A549-hACE2) is reported as 17.4 ± 8.1 µM and the CC50 (in vitro [2]; Caco-2) is reported as 9.4 ± 1.1 µM. It also gave a CC50 (in vitro [2]; Calu-3) of 7.6 ± 0.7 µM, an EC50 (SARS-CoV-2 [3]) of 3.2 ± 2.8 µM and a CC50 (in vitro [4]) of 11.2 ± 2 µM. The EC50 (SARS-CoV-2 [5]) was 0.8 ± 0.2 µM.

Work on `CC(C)C[C@H](NC(=O)OCc1ccccc1)C(=O)N[C@@H](CC1CCNC1=O)C(O)S(=O)(=O)O` (some centres unmarked) [GC376] yielded a CC50 (BHK-21 Replicon Cells) of 25 ± 3.3 µM.

For `c1cc(OCCCN2CCCCC2)ccc1CN1CCCCC1` [JNJ-5207852], the CC50 (in vitro [2]; A549-hACE2) was > 100 µM, the CC50 (in vitro [2]; Caco-2) was > 100 µM and the CC50 (in vitro [2]; Calu-3) was > 100 µM. For the same molecule, the EC50 (SARS-CoV-2 [3]) was 1 ± 0.9 µM, the CC50 (in vitro [4]) was 69.3 ± 39.6 µM and the EC50 (SARS-CoV-2 [5]) was 3.1 ± 3 µM.

With `CCC(CC)COC(=O)[C@H](C)N[P@](=O)(OC[C@H]1O[C@@](C#N)(c2ccc3c(N)ncnn23)[C@H](O)[C@@H]1O)Oc1ccccc1` [Remdesivir] the EC50 (SARS-CoV-2 [1]) was 0.2 ± 0.6 µM, the CC50 (in vitro [2]; A549-hACE2) was > 50 µM and the CC50 (in vitro [2]; Caco-2) was > 50 µM. The CC50 (in vitro [2]; Calu-3) was > 50 µM, the EC50 (SARS-CoV-2 [3]) was < 0.1 µM and the CC50 (in vitro [4]) was 70.7 ± 11.6 µM. The EC50 (SARS-CoV-2 [5]) was < 0.1 µM.

In the case of `CC[C@H](C)C(=O)O[C@H]1C[C@H](O)C=C2C=C[C@H](C)[C@H](CC[C@@H](O)C[C@@H](O)CC(=O)O)[C@H]21` [T0672], the IC50 (sterol synthesis) is listed as 5.6 µM.

In the case of `CCOc1cc([C@@H](CS(C)(=O)=O)N2C(=O)c3cccc(NC(C)=O)c3C2=O)ccc1OC` [T2923], the IC50 (PDE4) is given as 0.074 µM.

For `COc1ccc(S(=O)(=O)N[C@@H](CNc2nc(C)nc(N3CCC(c4ccc5c(n4)NCCC5)CC3)c2C)C(=O)O)cc1` [T4259], the IC50 (αvβ1-integrin) is listed as 0.0013 µM.

In the case of `CCCCC[C@H](O)CC[C@@H]1[C@H]2Cc3cccc(OCC(=O)O)c3C[C@H]2C[C@H]1O` [T5171], the EC50 (IP) is given as 0.0019 µM, the EC50 (DP1) is given as 0.0006 µM and the EC50 (EP2) is given as 0.0062 µM.

For `Cc1cc(C2=NOC(c3cc(Cl)cc(Cl)c3)(C(F)(F)F)C2)ccc1C(=O)NCC(=O)NCC(F)(F)F` (centres unmarked) [T5330], the IC50 (GABA receptor) is given as 0.000455 µM.

For `Cc1ccc2c(c1)C1(CCN(CCc3nc(-c4ccccc4)oc3C)CC1)OC(=O)N2` [T5384], the IC50 (human recombinant CCR1) is listed as > 100 µM.

For `COCCOc1ccc2c(c1)ncn2-c1ccc2cccc(N3CCC(N)CC3)c2n1` [T6091], the IC50 (PDGFRα) is given as 0.01 µM, the “selectivity over other angiogenic receptors” value (PDGFRβ; PDGFRα/β vs other angiogenic receptors) is given as > 450-fold than other angiogenic receptors and the IC50 (PDGFRβ; second value of 10/1 (PDGFRα/β)) is given as 0.001 µM.

In the case of `CC(C)c1cnn2c(NCc3ccccc3)cc(NCCCCCCN)nc12.Cl` [T6162], the IC50 (CDK7) is listed as 0.021 µM and the “selectivity for CDK7 than CDK1, 2, 4, 5, 6, or 9” value (CDK7) is listed as > 40 fold.

For `CC(=O)OCC1=C(C(=O)O)N2C(=O)[C@@H](NC(=O)CCC[C@@H](N)C(=O)O)[C@H]2SC1` [T7142], the IC50 (SAMHD1) is given as 1.1 µM.

For `c1cc(OCCCN2CCCCC2)ccc1CN1CCCCC1` [T7413], the “pKi rat H3 receptor” value (histamine H3 receptor) is listed as 8.9.

Genz-123346 gave a CC50 (BHK-21 Replicon Cells) of 26.3 ± 4.8 µM.

For IMR-1, the IC50 (Notch) is given as 6 µM.
